Values joined by “and” are separate entries in the source; they are usually repeats but may differ in a detail not shown here. Identical values can stand only once.
System: influenza A/Singapore/1/57 virus
Experiment: microbe, parasite or virus in culture
Type: cell-based

In the case of “1-methyl-2-(4-oxyethyl-phenylsulfomethyl)-3-carbethoxy-4-dimethylaminomethyl-5-oxy-6-bromindol”, the “Percent of inhibition of OD 490” value (A or C 0.3 μg/ml + Oseltamivir 0.4 μg, added 2 hours after infection) is reported as 15%, the “Percent of inhibition of OD 490” value (A or C 0.3 μg/ml + Oseltamivir 1.2 μg, added 2 hours after infection) is reported as 16% and the “Percent of inhibition of OD 490” value (A or C 0.3 μg/ml + Oseltamivir 4.1 μg, added 2 hours after infection) is reported as 18%. The “Percent of inhibition of OD 490” value (A or C 0.3 μg/ml + Oseltamivir 12.3 μg, added 2 hours after infection) was 35%, the “Percent of inhibition of OD 490” value (A or C 0.3 μg/ml + Oseltamivir 41 μg, added 2 hours after infection) was 40% and the “Percent of inhibition of OD 490” value (A or C 0.3 μg/ml alone (Oseltamivir 0), added 2 hours after infection) was “no”. For the same compound, the “Percent of inhibition of OD 490” value (A or C 1 μg/ml + Oseltamivir 0.4 μg, added 2 hours after infection) was 30%, the “Percent of inhibition of OD 490” value (A or C 1 μg/ml + Oseltamivir 1.2 μg, added 2 hours after infection) was 31% and the “Percent of inhibition of OD 490” value (A or C 1 μg/ml + Oseltamivir 4.1 μg, added 2 hours after infection) was 41%. The “Percent of inhibition of OD 490” value (A or C 1 μg/ml + Oseltamivir 12.3 μg, added 2 hours after infection) was 88%, the “Percent of inhibition of OD 490” value (A or C 1 μg/ml + Oseltamivir 41 μg, added 2 hours after infection) was 90% and the “Percent of inhibition of OD 490” value (A or C 1 μg/ml alone (Oseltamivir 0), added 2 hours after infection) was “no”. The “Percent of inhibition of OD 490” value (A or C 3 μg/ml + Oseltamivir 0.4 μg, added 2 hours after infection) was 35%, the “Percent of inhibition of OD 490” value (A or C 3 μg/ml + Oseltamivir 1.2 μg, added 2 hours after infection) was 37% and the “Percent of inhibition of OD 490” value (A or C 3 μg/ml + Oseltamivir 4.1 μg, added 2 hours after infection) was 60%. For the same compound, the “Percent of inhibition of OD 490” value (A or C 3 μg/ml + Oseltamivir 12.3 μg, added 2 hours after infection) was 91%, the “Percent of inhibition of OD 490” value (A or C 3 μg/ml + Oseltamivir 41 μg, added 2 hours after infection) was 100, 100% and the “Percent of inhibition of OD 490” value (A or C 3 μg/ml alone (Oseltamivir 0), added 2 hours after infection) was “no”. For the same compound, the “Percent of inhibition of OD 490” value (A or C 5 μg/ml + Oseltamivir 0.4 μg, added 2 hours after infection) was 50%, the “Percent of inhibition of OD 490” value (A or C 5 μg/ml + Oseltamivir 1.2 μg, added 2 hours after infection) was 40% and the “Percent of inhibition of OD 490” value (A or C 5 μg/ml + Oseltamivir 4.1 μg, added 2 hours after infection) was 96%. The “Percent of inhibition of OD 490” value (A or C 5 μg/ml + Oseltamivir 12.3 μg, added 2 hours after infection) was 96%, the “Percent of inhibition of OD 490” value (A or C 5 μg/ml + Oseltamivir 41 μg, added 2 hours after infection) was 100, 100% and the “Percent of inhibition of OD 490” value (A or C 5 μg/ml alone (Oseltamivir 0), added 2 hours after infection) was “no”. The “Percent of inhibition of OD 490” value (A or C 10 μg/ml + Oseltamivir 0.4 μg, added 2 hours after infection) was 46%, the “Percent of inhibition of OD 490” value (A or C 10 μg/ml + Oseltamivir 1.2 μg, added 2 hours after infection) was 65% and the “Percent of inhibition of OD 490” value (A or C 10 μg/ml + Oseltamivir 4.1 μg, added 2 hours after infection) was 95%. The “Percent of inhibition of OD 490” value (A or C 10 μg/ml + Oseltamivir 12.3 μg, added 2 hours after infection) was 95%, the “Percent of inhibition of OD 490” value (A or C 10 μg/ml + Oseltamivir 41 μg, added 2 hours after infection) was 98% and the “Percent of inhibition of OD 490” value (A or C 10 μg/ml alone (Oseltamivir 0), added 2 hours after infection) was 10%.
For `CC(N)C12CC3CC(CC(C3)C1)C2` (centres unmarked) [Remantadin], the “Percent of inhibition of OD 490” value (Remantadin 5 μg/ml alone (A or D 0 μg/ml), two values: A series, D series, added 30 min prior to infection) was 56% and 41% and the “Percent of inhibition of OD 490” value (Remantadin 10 μg/ml alone (A or D 0 μg/ml), two values: A series, D series, added 30 min prior to infection) was 59% and 40%.
“1-methyl-2-(n-methyl-phenylsulfomethyl)-3-carbethoxy-4-dimethylaminomethyl-5-oxy-6-bromindol” was tested, and the “Percent of inhibition of OD 490” value (A or D 1 μg/ml + Amantadin 0.3 μg/ml, added 30 min prior to infection) was 17%, the “Percent of inhibition of OD 490” value (A or D 1 μg/ml + Amantadin 1 μg/ml, added 30 min prior to infection) was 18% and the “Percent of inhibition of OD 490” value (A or D 1 μg/ml + Amantadin 5 μg/ml, added 30 min prior to infection) was 29%. For the same compound, the “Percent of inhibition of OD 490” value (A or D 1 μg/ml + Amantadin 10 μg/ml, added 30 min prior to infection) was 45%, the “Percent of inhibition of OD 490” value (A or D 1 μg/ml + Remantadin 0.3 μg/ml, added 30 min prior to infection) was 18% and the “Percent of inhibition of OD 490” value (A or D 1 μg/ml + Remantadin 1 μg/ml, added 30 min prior to infection) was 20%. The “Percent of inhibition of OD 490” value (A or D 1 μg/ml + Remantadin 5 μg/ml, added 30 min prior to infection) was 36%, the “Percent of inhibition of OD 490” value (A or D 1 μg/ml + Remantadin 10 μg/ml, added 30 min prior to infection) was 42% and the “Percent of inhibition of OD 490” value (A or D 1 μg/ml alone (Amantadin 0), added 30 min prior to infection) was 15%. The “Percent of inhibition of OD 490” value (A or D 1 μg/ml alone (Remantadin 0), added 30 min prior to infection) was 12%, the “Percent of inhibition of OD 490” value (A or D 5 μg/ml + Amantadin 0.3 μg/ml, added 30 min prior to infection) was 38% and the “Percent of inhibition of OD 490” value (A or D 5 μg/ml + Amantadin 1 μg/ml, added 30 min prior to infection) was 41%. For the same compound, the “Percent of inhibition of OD 490” value (A or D 5 μg/ml + Amantadin 5 μg/ml, added 30 min prior to infection) was 53%, the “Percent of inhibition of OD 490” value (A or D 5 μg/ml + Amantadin 10 μg/ml, added 30 min prior to infection) was 70% and the “Percent of inhibition of OD 490” value (A or D 5 μg/ml + Remantadin 0.3 μg/ml, added 30 min prior to infection) was 48%. The “Percent of inhibition of OD 490” value (A or D 5 μg/ml + Remantadin 1 μg/ml, added 30 min prior to infection) was 44%, the “Percent of inhibition of OD 490” value (A or D 5 μg/ml + Remantadin 5 μg/ml, added 30 min prior to infection) was 50% and the “Percent of inhibition of OD 490” value (A or D 5 μg/ml + Remantadin 10 μg/ml, added 30 min prior to infection) was 73%. For the same compound, the “Percent of inhibition of OD 490” value (A or D 5 μg/ml alone (Amantadin 0), added 30 min prior to infection) was 24%, the “Percent of inhibition of OD 490” value (A or D 5 μg/ml alone (Remantadin 0), added 30 min prior to infection) was 20% and the “Percent of inhibition of OD 490” value (A or D 10 μg/ml + Amantadin 0.3 μg/ml, added 30 min prior to infection) was 57%. The “Percent of inhibition of OD 490” value (A or D 10 μg/ml + Amantadin 1 μg/ml, added 30 min prior to infection) was 70%, the “Percent of inhibition of OD 490” value (A or D 10 μg/ml + Amantadin 5 μg/ml, added 30 min prior to infection) was 75% and the “Percent of inhibition of OD 490” value (A or D 10 μg/ml + Amantadin 10 μg/ml, added 30 min prior to infection) was 80%. The “Percent of inhibition of OD 490” value (A or D 10 μg/ml + Remantadin 0.3 μg/ml, added 30 min prior to infection) was 69%, the “Percent of inhibition of OD 490” value (A or D 10 μg/ml + Remantadin 1 μg/ml, added 30 min prior to infection) was 69% and the “Percent of inhibition of OD 490” value (A or D 10 μg/ml + Remantadin 5 μg/ml, added 30 min prior to infection) was 70%. For the same compound, the “Percent of inhibition of OD 490” value (A or D 10 μg/ml + Remantadin 10 μg/ml, added 30 min prior to infection) was 75%, the “Percent of inhibition of OD 490” value (A or D 10 μg/ml alone (Amantadin 0), added 30 min prior to infection) was 40% and the “Percent of inhibition of OD 490” value (A or D 10 μg/ml alone (Remantadin 0), added 30 min prior to infection) was 54%.
